# ± gives the expanded uncertainty stated by the source.
# Assay: molar enthalpy of vaporization or sublimation
# Conditions: 298.15 K; Crystal; Calvet microcalorimetry
compound,measurement,value
c1ccc2c(c1)sc1ccccc12 [dibenzothiophene],molar enthalpy,22.3 ± 0.239 kcal/mol
